Literature values in patent US11612566B2, “Lamotrigine oral liquid suspension and use thereof” (OWP Pharmaceuticals, Inc., priority 2019, dated 2023).

Settings: BCS class II molecule; poorly soluble in water

Nc1nnc(-c2cccc(Cl)c2Cl)c(N)n1 [Lamotrigine, 6-(2,3-dichlorophenyl)-1,2,4-triazine-3,5-diamine]
solubility: low
